Results: PubChem BioAssay AID192 (DTP/NCI, 2004)
“And” between values parts separate entries of the source, which are not always exact repeats. Equal entries are not always repeated. Inconclusive results and toxic doses are left out. Peptide text beside a SMILES is read from it. * marks the point of attachment. Boc = CC(C)(C)OC(=O)*; NHNH2 = NN*

Tested on: BDF1 mice, B16 melanoma ip, median survival T/C
Experiment: NCI In Vivo Anticancer Drug Screen. Data for tumor model B16 Melanoma (intraperitoneal) in B6D2F1 (BDF1) mice
Settings: endpoint: median survival time, schedule: Q01DX009 (ip), higher = longer survival
How it was run: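 Vehicle-treated animals serve as the reference (C); treated animals (T) are scored for survival or tumor size after tumor transplantation.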

[1] = dose: 25.0 mg/kg/injection, vehicle: saline
[2] = dose: 50.0 mg/kg/injection, vehicle: saline
[3] = dose: 100.0 mg/kg/injection, vehicle: saline
[4] = dose: 0.5 mg/kg/injection, vehicle: saline with Tween-80
[5] = dose: 1.0 mg/kg/injection, vehicle: saline with Tween-80
[6] = dose: 2.0 mg/kg/injection, vehicle: saline with Tween-80
[7] = dose: 4.0 mg/kg/injection, vehicle: saline with Tween-80
[8] = dose: 50.0 mg/kg/injection, vehicle: Klucel (hydroxypropylcellulose) (HPC)
[9] = dose: 100.0 mg/kg/injection, vehicle: Klucel (hydroxypropylcellulose) (HPC)
[10] = dose: 200.0 mg/kg/injection, vehicle: Klucel (hydroxypropylcellulose) (HPC)
[11] = dose: 200.0 mg/kg/injection, vehicle: saline
[12] = dose: 6.25 mg/kg/injection, vehicle: saline with Tween-80
[13] = dose: 25.0 mg/kg/injection, vehicle: saline with Tween-80
[14] = dose: 100.0 mg/kg/injection, vehicle: saline with Tween-80

Question: Which results are given for `CNCCN(C)Cc1ccccc1`?
Answer: T/C [1]: 97 % of control; T/C [2]: 94 % of control; T/C [3]: 89 % of control

Question: With `CCCCCc1cc(/C=C2/N=C(c3ccc[nH]3)C=C2OC)[nH]c1C` as the compound, how does the T/C (dose: 0.25 mg/kg/injection, vehicle: saline with Tween-80) read?
Answer: 98 % of control

Question: And the T/C [4]?
Answer: 100 % of control

Question: What about the T/C [5] of the same compound?
Answer: 102 % of control

Question: And the T/C [6]?
Answer: 107 % of control

Question: What about the T/C [7] of the same compound?
Answer: 110 % of control

Question: For `CCCCCCC(=O)CCCC`, which T/C (dose: 100.0 mg/kg/injection, vehicle: other) is on record?
Answer: 98 % of control

Question: What about the T/C (dose: 200.0 mg/kg/injection, vehicle: other) of the same compound?
Answer: 100 % of control

Question: For `COc1cc(NCc2ccc3nc(N)nc(N)c3c2C)cc(OC)c1OC`, which T/C (dose: 0.62 mg/kg/injection, vehicle: sodium bicarbonate) is on record?
Answer: 104 % of control

Question: What about the T/C (dose: 1.25 mg/kg/injection, vehicle: sodium bicarbonate) of the same compound?
Answer: 101 % of control and 117 % of control

Question: What about the T/C (dose: 2.5 mg/kg/injection, vehicle: sodium bicarbonate) of the same compound?
Answer: 107 % of control and 124 % of control

Question: What about the T/C (dose: 5.0 mg/kg/injection, vehicle: sodium bicarbonate) of the same compound?
Answer: 124 % of control

Question: And the T/C (dose: 10.0 mg/kg/injection, vehicle: sodium bicarbonate)?
Answer: 155 % of control

Question: What about the T/C (dose: 20.0 mg/kg/injection, vehicle: sodium bicarbonate) of the same compound?
Answer: 150 % of control and 164 % of control

Question: How did the T/C (dose: 1.3 micrograms/kg/injection, vehicle: saline + alcohol) turn out when `COc1cc2cc(c1Cl)N(C)C(=O)/C=C/C1(C)OC1C(C)C1CC(O)(NC(=O)O1)C(OC)C=C/C=C(\C)C2` (stereo not given) was run?
Answer: 100 % of control

Question: And the T/C (dose: 2.5 micrograms/kg/injection, vehicle: saline + alcohol)?
Answer: 97 % of control

Question: What about the T/C (dose: 5.0 micrograms/kg/injection, vehicle: saline + alcohol) of the same compound?
Answer: 97 % of control

Question: What about the T/C (dose: 10.0 micrograms/kg/injection, vehicle: saline + alcohol) of the same compound?
Answer: 92 % of control

Question: What does the source list for `COC(=O)[C@@]12OC[C@]34[C@H]([C@@H](O)[C@@H]1O)[C@@]1(C)C=C(OC5OC(CO)C(O)C(O)C5O)C(=O)C(C)[C@@H]1C[C@H]3OC(=O)[C@H](OC(=O)C=C(C)C)[C@@H]24` (stereo not given in full)?
Answer: T/C (dose: 0.25 mg/kg/injection, vehicle: saline + alcohol): 108 % of control; T/C (dose: 0.5 mg/kg/injection, vehicle: saline + alcohol): 108 % of control; T/C (dose: 1.0 mg/kg/injection, vehicle: saline + alcohol): 108 % of control; T/C (dose: 2.0 mg/kg/injection, vehicle: saline + alcohol): 105 % of control; T/C (dose: 4.0 mg/kg/injection, vehicle: saline + alcohol): 113 % of control; T/C (dose: 8.0 mg/kg/injection, vehicle: saline + alcohol): 103 % of control

Question: How did the T/C [4] turn out when `COc1cc(C2c3cc4c(cc3CC3COC(=O)C32)OCO4)cc(OC)c1O` (stereo not given) was run?
Answer: 98 % of control

Question: And the T/C [5]?
Answer: 104 % of control

Question: And the T/C [6]?
Answer: 123 % of control

Question: What about the T/C [7] of the same compound?
Answer: 106 % of control

Question: Which results are given for `CCOC(=O)c1c(C)[nH]c2c(-c3ccccc3)c3cc(Cl)ccc3nc12`?
Answer: T/C [8]: 100 % of control; T/C [9]: 104 % of control; T/C [10]: 94 % of control; T/C (dose: 400.0 mg/kg/injection, vehicle: Klucel (hydroxypropylcellulose) (HPC)): 94 % of control

Question: `C[C@H](CCC(=O)O)[C@H]1CC[C@H]2[C@@H]3[C@H](O)C[C@@H]4C[C@H](O)CC[C@]4(C)[C@H]3C[C@H](O)[C@]12C` (tested in a mixture with another compound) was tested. Which T/C [2] did it give?
Answer: 102 % of control

Question: And the T/C [3]?
Answer: 109 % of control

Question: And the T/C [11]?
Answer: 111 % of control

Question: Which T/C (dose: 18.75 mg/kg/injection, vehicle: Klucel (hydroxypropylcellulose) (HPC)) does the source give for `CN(C)N=Nc1ccccc1C(=O)NC#N` here?
Answer: 95 % of control

Question: What about the T/C (dose: 37.5 mg/kg/injection, vehicle: Klucel (hydroxypropylcellulose) (HPC)) of the same compound?
Answer: 105 % of control

Question: `CC(C)CC(NC(=O)C(Cc1c[nH]c2ccccc12)NC(=O)OC(C)(C)C)C(=O)NN` (stereo not drawn) (Boc-Trp-Leu-NHNH2; configuration not given here) was tested. Which T/C [1] did it give?
Answer: 88 % of control

Question: And the T/C [2]?
Answer: 98 % of control

Question: And the T/C [3]?
Answer: 88 % of control

Question: And the T/C [11]?
Answer: 87 % of control

Question: With `O=C1Cc2cc3c(cc2C=C2CCCN12)OCO3` as the compound, how does the T/C (dose: 12.5 mg/kg/injection, vehicle: water) read?
Answer: 117 % of control

Question: And the T/C (dose: 25.0 mg/kg/injection, vehicle: water)?
Answer: 108 % of control

Question: What about the T/C (dose: 50.0 mg/kg/injection, vehicle: water) of the same compound?
Answer: 102 % of control

Question: What about the T/C (dose: 100.0 mg/kg/injection, vehicle: water) of the same compound?
Answer: 107 % of control

Question: With `O=[N+]([O-])c1ccc(Cl)c([N+](=O)[O-])c1` as the compound, how does the T/C (dose: 5.0 mg/kg/injection, vehicle: saline with Tween-80) read?
Answer: 100 % of control and 112 % of control

Question: And the T/C (dose: 10.0 mg/kg/injection, vehicle: saline with Tween-80)?
Answer: 94 % of control and 99 % of control

Question: What about the T/C (dose: 20.0 mg/kg/injection, vehicle: saline with Tween-80) of the same compound?
Answer: 99 % of control and 102 % of control

Question: What about the T/C (dose: 40.0 mg/kg/injection, vehicle: saline with Tween-80) of the same compound?
Answer: 98 % of control and 107 % of control

Question: And the T/C (dose: 80.0 mg/kg/injection, vehicle: saline with Tween-80)?
Answer: 100 % of control and 108 % of control

Question: For `O=c1ccc2ccccc2o1`, which T/C (dose: 25.0 mg/kg/injection, vehicle: Klucel (hydroxypropylcellulose) (HPC)) is on record?
Answer: 100 % of control

Question: And the T/C [8]?
Answer: 105 % of control

Question: What about the T/C [9] of the same compound?
Answer: 111 % of control

Question: And the T/C [10]?
Answer: 101 % of control

Question: Which results are given for `CCc1ccc(C2=C(O)C(=O)C(c3ccc(CC)cc3)=C(O)C2=O)cc1`?
Answer: T/C (dose: 3.12 mg/kg/injection, vehicle: saline with Tween-80): 114 % of control; T/C [12]: 103 % of control; T/C (dose: 12.5 mg/kg/injection, vehicle: saline with Tween-80): 113 % of control and 119 % of control; T/C [13]: 112 % of control and 122 % of control

Question: What does the source list for `Cc1ccc(C)c(NC(=O)Nc2ccc(Cl)cc2)c1`?
Answer: T/C (dose: 50.0 mg/kg/injection, vehicle: gum acacia): 121 % of control; T/C (dose: 100.0 mg/kg/injection, vehicle: gum acacia): 92 % of control; T/C (dose: 200.0 mg/kg/injection, vehicle: gum acacia): 98 % of control

Question: Which T/C (dose: 75.0 mg/kg/injection, vehicle: Klucel (hydroxypropylcellulose) (HPC)) does the source give for `O=C(O)c1ccc2sc3ccccc3c(=O)c2c1` here?
Answer: 100 % of control

Question: What about the T/C (dose: 150.0 mg/kg/injection, vehicle: Klucel (hydroxypropylcellulose) (HPC)) of the same compound?
Answer: 96 % of control

Question: And the T/C (dose: 300.0 mg/kg/injection, vehicle: Klucel (hydroxypropylcellulose) (HPC))?
Answer: 96 % of control

Question: `c1ccc(-c2nn(-c3ccccc3)[n+](-c3cccc4ccccc34)n2)cc1` was tested. Which T/C [6] did it give?
Answer: 97 % of control

Question: And the T/C [7]?
Answer: 93 % of control

Question: For `CCC[CH2][Sn]1([CH2]CCC)[N](S(=O)(=O)c2ccc(C)cc2)c2ccccc2[N]1S(=O)(=O)c1ccc(C)cc1`, which T/C (dose: 1.5 mg/kg/injection, vehicle: Klucel (hydroxypropylcellulose) (HPC)) is on record?
Answer: 87 % of control

Question: What about the T/C (dose: 3.0 mg/kg/injection, vehicle: Klucel (hydroxypropylcellulose) (HPC)) of the same compound?
Answer: 102 % of control

Question: With `CCCCCC(CN(C)C)C(=O)/C=C\c1ccc(Cl)cc1Cl` (stereo not given) as the compound, how does the T/C (dose: 6.25 mg/kg/injection, vehicle: saline) read?
Answer: 105 % of control

Question: And the T/C (dose: 12.5 mg/kg/injection, vehicle: saline)?
Answer: 97 % of control

Question: How did the T/C [14] turn out when `O=S1(=O)CC2(N3CCOCC3)CCCCC21` (stereo not given) was run?
Answer: 102 % of control

Question: And the T/C (dose: 200.0 mg/kg/injection, vehicle: saline with Tween-80)?
Answer: 104 % of control

Question: `CC(C)(C)OC(=O)NC(Cc1ccc(OCc2c(Cl)cccc2Cl)cc1)C(=O)O` (stereo not given) was tested. Which T/C [13] did it give?
Answer: 101 % of control

Question: What about the T/C (dose: 50.0 mg/kg/injection, vehicle: saline with Tween-80) of the same compound?
Answer: 104 % of control

Question: What about the T/C [14] of the same compound?
Answer: 86 % of control

Question: With `CC1C2CCC3C(O)C2(CC(O)C2(O)C1CC(O)C2(C)C)CC3(C)O` (stereo not given) as the compound, how does the T/C (dose: 0.25 mg/kg/injection, vehicle: Klucel (hydroxypropylcellulose) (HPC)) read?
Answer: 103 % of control

Question: And the T/C (dose: 0.5 mg/kg/injection, vehicle: Klucel (hydroxypropylcellulose) (HPC))?
Answer: 103 % of control

Question: `Clc1ccc2c(c1)C(Nc1cc3c4ccccc4ccc3c3ccccc13)c1cc(Cl)cc(Cl)c1-2` (stereo not given) was tested. Which T/C [12] did it give?
Answer: 86 % of control
